Experiment [1] has as its target PmHS2 (Pasteurella multocida, UniProt Q5SGE1). Put plainly: apparent kinetics. The experiment is classed as biochemical. The note with it: alpha1-4-GlcNAcT activity (acceptor; donor not stated in main text).
The target of experiment [2] is Δ80PmHS2 (Pasteurella multocida, UniProt Q5SGE1). Put plainly: apparent kinetics. Type of experiment: biochemical. The note with it: alpha1-4-GlcNAcT activity (acceptor; donor not stated in main text).

Consider GlcAβ2AA, for which the Km in experiment [1] stood at 4 ± 0.6 mM; in experiment [2] it was 5.3 ± 0.7 mM.

As usually defined, the Km is the concentration of substrate that gives half-maximal velocity.

The values are drawn from publication PMC7842274 (ACS catalysis, 2020).
